Source: US20060211755A1, “3-oxo-1, 3-dihydro-indazole-2-carboxylic acid amide derivatives as phospholipase inhibitors” (Eli Lilly and Company Patent Division, priority 2003, published 2006)

With `C=CCOC(=O)c1cccc2[nH]n(C(=O)NCCCCCC)c(=O)c12` [Example 100, 2-Hexylcarbamoyl-3-oxo-2,3-dihydro-1H-indazole-4-carboxylic acid allyl ester] the melting point was 67 to 69 °C.
With `CC(C)c1cccc(C(C)C)c1CNC(=O)n1[nH]c2c(C(=O)O)cccc2c1=O` [Example 72, 2-(2,6-Diisopropyl-benzylcarbamoyl)-3-oxo-2,3-dihydro-1H-indazole-7-carboxylic acid] the melting point was > 250 °C.
In the case of `Cc1ccc(F)cc1CNC(=O)n1[nH]c2c(C(=O)O)cccc2c1=O` [Example 58, 2-(5-Fluoro-2-methyl-benzylcarbamoyl)-3-oxo-2,3-dihydro-1H-indazole-7-carboxylic acid], the melting point is reported as > 250 °C.
Work on `CCCCc1ccc(CNC(=O)n2[nH]c3cccc(C(=O)O)c3c2=O)c(C)c1` [Example 68, 2-(4-Butyl-2-methyl-benzylcarbamoyl)-3-oxo-2,3-dihydro-1H-indazole-4-carboxylic acid] yielded a melting point of 173 to 175 °C.
In the case of `CCc1cccc(CC)c1CNC(=O)n1c(=O)c2cccc(C(=O)O)c2n1C` [Example 98, 2-(2,6-Diethyl-benzylcarbamoyl)-1-methyl-3-oxo-2,3-dihydro-1H-indazole-7-carboxylic acid], the melting point is reported as > 250 °C.
In the case of `CCCCCCNC(=O)n1[nH]c2cccc(C(=O)O)c2c1=O` [Example 78, 2-Hexylcarbamoyl-3-oxo-2,3-dihydro-1H-indazole-4-carboxylic acid], the melting point is reported as > 250 °C.
Molecule `CCCCCCNC(=O)n1[nH]c2cccc(C(=O)OC)c2c1=O` [Example 99, 2-Hexylcarbamoyl-3-oxo-2,3-dihydro-1H-indazole4-carboxylic acid methyl ester] has a melting point of 63 to 65 °C.
Molecule `CCc1cccc(C)c1CNC(=O)n1c(=O)c2cccc(C(=O)O)c2n1CC(=O)O` [Example 82, 1-Carboxymethyl-2-(2-ethyl-6-methyl-benzylcarbamoyl)-3-oxo-2,3-dihydro-1H-indazole-7-carboxylic acid] has a melting point of 172 to 174 °C.
With `CC(C)CCCCNC(=O)n1[nH]c2ccccc2c1=O` [Example 5, 3-Oxo-1,3-dihydro-indazole-2-carboxylic acid (5-methyl-hexyl)-amide] the melting point was 134 to 136 °C.
`CCc1cccc(C)c1CNC(=O)n1c(=O)c2cccc(C(=O)O)c2n1CC(=O)OC` [Example 83, 2-(2-Ethyl-6-methyl-benzylcarbamoyl)-1-methoxycarbonylmethyl-3-oxo-2,3-dihydro-1H-indazole-7-carboxylic acid] showed a melting point of 220 to 222 °C.
In the case of `CCc1cccc(C)c1CNC(=O)n1c(=O)c2cccc(C(=O)O)c2n1C` [Example 79, 2-(2-Ethyl-6-methyl-benzylcarbamoyl)-1-methyl-3-oxo-2,3-dihydro-1H-indazole-7-carboxylic acid], the melting point is reported as > 250 °C.
With `CCCn1c2c(C(=O)O)cccc2c(=O)n1C(=O)NCc1c(C)cccc1CC` [Example 81, 2-(2-Ethyl-6-methyl-benzylcarbamoyl)-3-oxo-1-propyl-2,3-dihydro-1H-indazole-7-carboxylic acid] the melting point was > 250 °C.
For `CCCNC(=O)n1[nH]c2ccccc2c1=O` [Example 1, 3-Oxo-1,3-dihydro-indazole-2-carboxylic acid propylamide], the melting point was 153 to 155 °C.
With `Cc1cccc(C)c1CNC(=O)n1[nH]c2c(C(=O)O)cccc2c1=O` [Example 60, 2-(2,6-Dimethyl-benzylcarbamoyl)-3-oxo-2,3-dihydro-1H-indazole-7-carboxylic acid] the melting point was > 250 °C.
In the case of `CCc1cccc(C)c1CNC(=O)n1[nH]c2cccc(C(=O)O)c2c1=O` [Example 61, 2-(2-Ethyl-6-methyl-benzylcarbamoyl)-3-oxo-2,3-dihydro-1H-indazole-4-carboxylic acid], the melting point is reported as > 250 °C.
In the case of `Cc1ccccc1CNC(=O)n1[nH]c2ccc(C(=O)O)cc2c1=O` [Example 53, 2-(2-Methyl-benzylcarbamoyl)-3-oxo-2,3-dihydro-1H-indazole-5-carboxylic acid], the melting point is reported as > 250 °C.
With `Cc1ccc(F)cc1CNC(=O)n1[nH]c2cccc(C(=O)O)c2c1=O` [Example 57, 2-(5-Fluoro-2-methyl-benzylcarbamoyl)-3-oxo-2,3-dihydro-1H-indazole-4-carboxylic acid] the melting point was 230 °C (dec.).
With `Cc1cccc(C)c1CNC(=O)n1[nH]c2cccc(C(=O)O)c2c1=O` [Example 59, 2-(2,6-Dimethyl-benzylcarbamoyl)-3-oxo-2,3-dihydro-1H-indazole-4-carboxylic acid] the melting point was > 250 °C.
In the case of `CCc1cccc(C)c1CNC(=O)n1[nH]c2c(C(=O)O)cccc2c1=O` [Example 64, 2-(2-Ethyl-6-methyl-benzylcarbamoyl)-3-oxo-2,3-dihydro-1H-indazole-7-carboxylic acid], the melting point is reported as > 250 °C.
With `Cc1ccccc1CNC(=O)n1[nH]c2ccccc2c1=O` [Example 16, 3-Oxo-1,3-dihydro-indazole-2-carboxylic acid 2-methyl-benzylamide] the melting point was 166 to 168 °C.
With `CCc1cccc(C)c1CNC(=O)n1[nH]c2cc(C(=O)O)ccc2c1=O` [Example 63, 2-(2-Ethyl-6-methyl-benzylcarbamoyl)-3-oxo-2,3-dihydro-1H-indazole-6-carboxylic acid] the melting point was > 250 °C.
`Cc1cccc(CNC(=O)n2[nH]c3ccccc3c2=O)c1` [Example 17, 3-Oxo-1,3-dihydro-indazole-2-carboxylic acid 3-methyl-benzylamide] gave a melting point of 179 to 180 °C.
With `Cc1ccccc1CNC(=O)n1[nH]c2c(C(=O)O)cccc2c1=O` [Example 55, 2-(2-Methyl-benzylcarbamoyl)-3-oxo-2,3-dihydro-1H-indazole-7-carboxylic acid] the melting point was > 250 °C.
For `CCCCCNC(=O)n1[nH]c2ccccc2c1=O` [Example 2, 3-Oxo-1,3-dihydro-indazole-2-carboxylic acid pentylamide], the melting point was 119 to 120 °C.
For `Cc1cccc(C(C)(C)C)c1CNC(=O)n1c(=O)c2cccc(C(=O)O)c2n1C` [Example 97, 2-(2-tert-Butyl-6-methyl-benzylcarbamoyl)-1-methyl-3-oxo-2,3-dihydro-1H-indazole-7-carboxylic acid], the melting point was > 250 °C.
In the case of `CCc1cccc(C)c1CNC(=O)n1[nH]c2ccc(C(=O)O)cc2c1=O` [Example 62, 2-(2-Ethyl-6-methyl-benzylcarbamoyl)-3-oxo-2,3-dihydro-1H-indazole-5-carboxylic acid], the melting point is reported as > 250 °C.
In the case of `COc1cccc(CNC(=O)n2[nH]c3ccccc3c2=O)c1` [Example 24, 3-Oxo-1,3-dihydro-indazole-2-carboxylic acid 3-methoxy-benzylamide], the melting point is reported as 186 to 188 °C.
With `Cc1ccc2c(=O)n(C(=O)NCc3ccccc3C)[nH]c2c1` [Example 45, 6-Methyl-3-oxo-1,3-dihydro-indazole-2-carboxylic acid 2-methyl-benzylamide] the melting point was 235 °C (dec.).
Molecule `O=C(O)c1cccc2[nH]n(C(=O)NCCCCC3CCCCC3)c(=O)c12` [Example 76, 2-(4-Cyclohexyl-butylcarbamoyl)-3-oxo-2,3-dihydro-1H-indazole-4-carboxylic acid] has a melting point of 196 to 198 °C.
With `Cc1ccccc1CNC(=O)n1[nH]c2cccc(C(=O)O)c2c1=O` [Example 52, 2-(2-Methyl-benzylcarbamoyl)-3-oxo-2,3-dihydro-1H-indazole-4-carboxylic acid] the melting point was > 250 °C.
In the case of `CCc1cccc(C)c1CNC(=O)n1c(=O)c2cccc(C(=O)O)c2n1CC` [Example 80, 1-Ethyl-2-(2-ethyl-6-methyl-benzylcarbamoyl)-3-oxo-2,3-dihydro-1H-indazole-7-carboxylic acid], the melting point is reported as > 250 °C.
In the case of `O=C(O)c1cccc2[nH]n(C(=O)NCCCCc3ccccc3)c(=O)c12` [Example 75, 3-Oxo-2-(4-phenyl-butylcarbamoyl)-2,3-dihydro-1H-indazole-4-carboxylic acid], the melting point is reported as > 250 °C.
In the case of `CCc1cccc(CC)c1CNC(=O)n1[nH]c2cccc(C(=O)O)c2c1=O` [Example 69, 2-(2,6-Diethyl-benzylcarbamoyl)-3-oxo-2,3-dihydro-1H-indazole-4-carboxylic acid], the melting point is reported as > 250 °C.
For `CCc1cccc(CC)c1CNC(=O)n1[nH]c2c(C(=O)O)cccc2c1=O` [Example 70, 2-(2,6-Diethyl-benzylcarbamoyl)-3-oxo-2,3-dihydro-1H-indazole-7-carboxylic acid], the melting point was > 250 °C.
